Experimental data from the NIST ThermoML archive (doi:10.1016/j.jct.2011.12.035).

Assay: xn = mol fraction of the nth substance listed
Conditions: Gas, Buoyancy - hydrostatic balance with magnetic suspension - one sinker

N#N [nitrogen] + O=C=O
Conditions | mass density [kg/m3]
250.01 K, 994.48 kPa, x2 = 0.2 | 15.21
250.02 K, 1979.3 kPa, x2 = 0.2 | 30.827
250.02 K, 4032.4 kPa, x2 = 0.2 | 65.204
250.02 K, 6013.2 kPa, x2 = 0.2 | 100.543
250.02 K, 8000.9 kPa, x2 = 0.2 | 137.785
250.02 K, 10004 kPa, x2 = 0.2 | 176.401
250.02 K, 12010 kPa, x2 = 0.2 | 215.101
250.02 K, 14018 kPa, x2 = 0.2 | 252.741
250.02 K, 16027 kPa, x2 = 0.2 | 288.385
250.02 K, 18039 kPa, x2 = 0.2 | 321.449
250.02 K, 19633 kPa, x2 = 0.2 | 345.629
250.04 K, 2996.3 kPa, x2 = 0.2 | 47.559
250.04 K, 4997.5 kPa, x2 = 0.2 | 82.144
250.05 K, 488.24 kPa, x2 = 0.2 | 7.397
250.05 K, 997.91 kPa, x2 = 0.2 | 15.262
250.05 K, 6997.7 kPa, x2 = 0.2 | 118.767
250.05 K, 8998.8 kPa, x2 = 0.2 | 156.893
250.05 K, 11001 kPa, x2 = 0.2 | 195.63
250.05 K, 13005 kPa, x2 = 0.2 | 233.864
250.05 K, 15008 kPa, x2 = 0.2 | 270.511
250.05 K, 17012 kPa, x2 = 0.2 | 304.796
250.05 K, 17639 kPa, x2 = 0.2 | 314.981
274.99 K, 998.23 kPa, x2 = 0.2 | 13.8
274.99 K, 1987.8 kPa, x2 = 0.2 | 27.804
274.99 K, 3995.6 kPa, x2 = 0.2 | 57.18
274.99 K, 5997.2 kPa, x2 = 0.2 | 87.563
274.99 K, 7998.9 kPa, x2 = 0.2 | 118.772
274.99 K, 10000 kPa, x2 = 0.2 | 150.404
274.99 K, 12005 kPa, x2 = 0.2 | 182.017
274.99 K, 14006 kPa, x2 = 0.2 | 213.01
274.99 K, 16009 kPa, x2 = 0.2 | 243.011
274.99 K, 18043 kPa, x2 = 0.2 | 272.044
274.99 K, 19430 kPa, x2 = 0.2 | 290.888
275.02 K, 996.58 kPa, x2 = 0.501 | 16.162
275.02 K, 1993.3 kPa, x2 = 0.501 | 33.323
275.02 K, 2996.6 kPa, x2 = 0.501 | 51.754
275.02 K, 3997.4 kPa, x2 = 0.501 | 71.374
275.02 K, 4998.7 kPa, x2 = 0.501 | 92.411
275.02 K, 5999.5 kPa, x2 = 0.501 | 114.98
275.02 K, 7003.4 kPa, x2 = 0.501 | 139.278
275.02 K, 8006 kPa, x2 = 0.501 | 165.225
275.02 K, 9125.5 kPa, x2 = 0.501 | 196.081
275.02 K, 10029 kPa, x2 = 0.501 | 222.169
275.02 K, 11018 kPa, x2 = 0.501 | 251.523
275.02 K, 12025 kPa, x2 = 0.501 | 281.541
275.02 K, 13025 kPa, x2 = 0.501 | 310.916
275.03 K, 14032 kPa, x2 = 0.501 | 339.405
275.03 K, 15032 kPa, x2 = 0.501 | 366.266
275.03 K, 15926 kPa, x2 = 0.501 | 388.806
275.04 K, 17027 kPa, x2 = 0.501 | 414.634
275.04 K, 17563 kPa, x2 = 0.501 | 426.437
299.95 K, 2996.2 kPa, x2 = 0.2 | 38.386
299.95 K, 4996.3 kPa, x2 = 0.2 | 64.833
299.95 K, 6997.1 kPa, x2 = 0.2 | 91.756
299.95 K, 8997.6 kPa, x2 = 0.2 | 118.906
299.95 K, 11032 kPa, x2 = 0.2 | 146.5
299.95 K, 13037 kPa, x2 = 0.2 | 173.362
299.95 K, 15002 kPa, x2 = 0.2 | 199.149
299.95 K, 17077 kPa, x2 = 0.2 | 225.549
299.95 K, 18151 kPa, x2 = 0.2 | 238.85
299.96 K, 492.88 kPa, x2 = 0.2 | 6.193
299.96 K, 984.74 kPa, x2 = 0.2 | 12.423
299.96 K, 995.87 kPa, x2 = 0.501 | 14.686
299.96 K, 15998 kPa, x2 = 0.501 | 308.658
299.97 K, 1995.1 kPa, x2 = 0.501 | 30.061
299.97 K, 2998.8 kPa, x2 = 0.501 | 46.195
299.97 K, 4000.2 kPa, x2 = 0.501 | 62.993
299.97 K, 5015.8 kPa, x2 = 0.501 | 80.785
299.97 K, 6023.7 kPa, x2 = 0.501 | 99.216
299.97 K, 7004.9 kPa, x2 = 0.501 | 117.9
299.97 K, 8009.1 kPa, x2 = 0.501 | 137.74
299.97 K, 9014.3 kPa, x2 = 0.501 | 158.299
299.97 K, 9993.3 kPa, x2 = 0.501 | 178.967
299.97 K, 9996.5 kPa, x2 = 0.501 | 178.959
299.97 K, 10996 kPa, x2 = 0.501 | 200.469
299.97 K, 11995 kPa, x2 = 0.501 | 222.215
299.97 K, 12998 kPa, x2 = 0.501 | 244.208
299.97 K, 13996 kPa, x2 = 0.501 | 266
299.97 K, 14996 kPa, x2 = 0.501 | 287.528
299.97 K, 16996 kPa, x2 = 0.501 | 329.04
299.97 K, 17997 kPa, x2 = 0.501 | 348.774
299.97 K, 19020 kPa, x2 = 0.501 | 368.091
299.97 K, 19970 kPa, x2 = 0.501 | 385.259
324.96 K, 1994 kPa, x2 = 0.2 | 23.265
324.96 K, 1994.1 kPa, x2 = 0.2 | 23.265
324.96 K, 3976.6 kPa, x2 = 0.2 | 46.775
324.96 K, 5997.1 kPa, x2 = 0.2 | 70.986
324.96 K, 7997.5 kPa, x2 = 0.2 | 95.062
324.96 K, 9999.3 kPa, x2 = 0.2 | 119.106
324.96 K, 12001 kPa, x2 = 0.2 | 142.924
324.96 K, 14002 kPa, x2 = 0.2 | 166.343
324.96 K, 16004 kPa, x2 = 0.2 | 189.249
324.96 K, 18002 kPa, x2 = 0.2 | 211.461
324.96 K, 19964 kPa, x2 = 0.2 | 232.536
324.98 K, 974.07 kPa, x2 = 0.501 | 13.176
324.98 K, 1991.5 kPa, x2 = 0.501 | 27.367
324.98 K, 2996.4 kPa, x2 = 0.501 | 41.83
324.98 K, 3995.3 kPa, x2 = 0.501 | 56.615
324.98 K, 4997.2 kPa, x2 = 0.501 | 71.872
324.98 K, 5995.1 kPa, x2 = 0.501 | 87.485
324.98 K, 6998.1 kPa, x2 = 0.501 | 103.583
324.98 K, 7998.2 kPa, x2 = 0.501 | 120.002
324.98 K, 9001.9 kPa, x2 = 0.501 | 136.826
